Values joined by “and” are separate entries in the source; they are usually repeats but may differ in a detail not shown here. Identical values can stand only once.
Legend:
CASOB = experiment: Postemergence herbicidal evaluation; assay type: in vivo
GLXMA [1] = experiment: Postemergence herbicidal evaluation; assay type: in vivo
CHEAL = experiment: Postemergence herbicidal evaluation; assay type: in vivo
ECHCG = experiment: Postemergence herbicidal evaluation; assay type: in vivo
ORYSAT = experiment: Preemergence herbicidal evaluation; assay type: in vivo, Oryza sativa; design: scale not given here
SETVI = experiment: Postemergence herbicidal evaluation; assay type: in vivo
GLXMA [2] = experiment: Preemergence herbicidal evaluation; assay type: in vivo
Protocol: (§1) The preemergence and postemergence herbicidal properties of certain compounds of the present invention are compared with certain compounds disclosed in U.S. Pat. Nos. 5,484,763 and 5,523,278. The evaluations are performed as described in Examples 185 and 186. Data in Tables V and VI are reported by the compound number given in Example 185 for the compounds of this invention or by comparative compound letter for the compounds disclosed in U.S. Pat. Nos. 5,484,763 and 5,523,278.

TRZAWR = experiment: Postemergence herbicidal evaluation; assay type: in vivo
IPOSS = experiment: Postemergence herbicidal evaluation; assay type: in vivo
GLXMAW [3] = experiment: Postemergence herbicidal evaluation; assay type: in vivo
IPOHE [4] = experiment: Postemergence herbicidal evaluation; assay type: in vivo; details: 0.0625-0.0640 kg/ha
GLXMAW [5] = experiment: Preemergence herbicidal evaluation; assay type: in vivo; design: scale not given here; details: 0.1250 kg/ha
IPOHE [6] = experiment: Preemergence herbicidal evaluation; assay type: in vivo; details: 0.1250 kg/ha
Protocol: as §1

Measured: herbicidal effect rating

Cn1c(C(F)(F)F)cc(=O)n(-c2ccc3snc(-c4ccccc4)c3c2)c1=O [Compound 4, 1-Methyl-3-(3-phenyl-1,2-benzisothiazol-5-yl)-6-(trifluoromethyl)-2,4(1H,3H)-pyrimidinedione]
7.0: CASOB; 0.0157-0.0160 kg/ha | CASOB; 0.0313-0.0320 kg/ha | GLXMA [1]; 0.1250 kg/ha | ECHCG; 0.0625-0.0640 kg/ha | ORYSAT; 0.0313-0.0320 kg/ha | ORYSAT; 0.0620-0.0630 kg/ha | ORYSAT; 0.1250 kg/ha | ORYSAT; 0.2500 kg/ha | ORYSAT; 0.5000 kg/ha | GLXMA [2]; 0.2500 kg/ha | IPOSS; 0.0313-0.0320 kg/ha
6.0: GLXMA [1]; 0.0157-0.0160 kg/ha
9.0: CASOB; 0.0625-0.0640 kg/ha | CASOB; 0.1250 kg/ha | CASOB; 0.2500 kg/ha | CASOB; 0.5000 kg/ha | GLXMA [1]; 0.2500 kg/ha | GLXMA [1]; 0.5000 kg/ha | CHEAL; 0.0157-0.0160 kg/ha | CHEAL; 0.0313-0.0320 kg/ha | CHEAL; 0.0625-0.0640 kg/ha | CHEAL; 0.1250 kg/ha | CHEAL; 0.2500 kg/ha | CHEAL; 0.5000 kg/ha | ECHCG; 0.5000 kg/ha | SETVI; 0.0313-0.0320 kg/ha | SETVI; 0.0625-0.0640 kg/ha | SETVI; 0.1250 kg/ha | SETVI; 0.2500 kg/ha | SETVI; 0.5000 kg/ha | GLXMA [2]; 0.0620-0.0630 kg/ha | GLXMA [2]; 0.1250 kg/ha | GLXMA [2]; 0.5000 kg/ha | IPOSS; 0.0625-0.0640 kg/ha | IPOSS; 0.1250 kg/ha | IPOSS; 0.2500 kg/ha | IPOSS; 0.5000 kg/ha
8.0: ECHCG; 0.1250 kg/ha | ECHCG; 0.2500 kg/ha | SETVI; 0.0157-0.0160 kg/ha
5.0: GLXMA [1]; 0.0313-0.0320 kg/ha | ECHCG; 0.0313-0.0320 kg/ha
2.0: ECHCG; 0.0157-0.0160 kg/ha | TRZAWR; 0.0157-0.0160 kg/ha | TRZAWR; 0.0313-0.0320 kg/ha
3.0: GLXMA [2]; 0.0313-0.0320 kg/ha | TRZAWR; 0.0625-0.0640 kg/ha | TRZAWR; 0.1250 kg/ha | TRZAWR; 0.2500 kg/ha
4.0: GLXMA [1]; 0.0625-0.0640 kg/ha | TRZAWR; 0.5000 kg/ha

Cc1nsc2ccc(-n3c(=O)cc(C(F)(F)F)n(C)c3=O)cc12 [Compound 6, 1-Methyl-3-(3-methyl-1,2-benzisothiazol-5-yl)-6-(trifluoromethyl)-2,4(1H,3H)-pyrimidinedione]
3.0 and 1.5 and 2.0: ECHCG; 0.0625-0.0640 kg/ha | TRZAWR; 0.0625-0.0640 kg/ha
2.0: GLXMA [2]; 0.0156-0.0160 kg/ha | GLXMA [2]; 0.0313-0.0320 kg/ha
3.0: IPOHE [6]
4.4 and 7.0: ORYSAT; 0.0313-0.0320 kg/ha
1.0 and 2.0: ECHCG; 0.0313-0.0320 kg/ha
6.5 and 5.0 and 9.0: CHEAL; 0.0313-0.0320 kg/ha
7.0: GLXMAW [3]; 0.1250 kg/ha | GLXMAW [3]; 0.2500 kg/ha | CASOB; 0.1250 kg/ha | CASOB; 0.5000 kg/ha | GLXMA [1]; 0.5000 kg/ha | ECHCG; 0.1250 kg/ha | ECHCG; 0.5000 kg/ha | ORYSAT; 0.0620-0.0630 kg/ha | GLXMA [2]; 0.1250 kg/ha
9.0 and 8.0: IPOSS; 0.0313-0.0320 kg/ha
9.0: CHEAL; 0.1250 kg/ha | CHEAL; 0.2500 kg/ha | CHEAL; 0.5000 kg/ha | ORYSAT; 0.5000 kg/ha | SETVI; 0.1250 kg/ha | SETVI; 0.2500 kg/ha | SETVI; 0.5000 kg/ha | GLXMA [2]; 0.2500 kg/ha | GLXMA [2]; 0.5000 kg/ha | IPOSS; 0.0625-0.0640 kg/ha | IPOSS; 0.1250 kg/ha | IPOSS; 0.2500 kg/ha | IPOSS; 0.5000 kg/ha
9.0 and 5.0: IPOHE [4]
2.5: TRZAWR; 0.1250 kg/ha
4.0: GLXMA [1]; 0.0625-0.0640 kg/ha | GLXMA [2]; 0.0620-0.0630 kg/ha
6.0 and 4.8 and 7.0: GLXMAW [3]; 0.0625-0.0640 kg/ha
2.5 and 4.0: CASOB; 0.0625-0.0640 kg/ha | GLXMA [1]; 0.0157-0.0160 kg/ha
9.0 and 7.0: CHEAL; 0.0625-0.0640 kg/ha
5.5 and 3.8 and 7.0: GLXMAW [3]; 0.0313-0.0320 kg/ha
0.0: CASOB; 0.0157-0.0160 kg/ha | GLXMAW [5]
8.0: CASOB; 0.2500 kg/ha | ORYSAT; 0.1250 kg/ha | ORYSAT; 0.2500 kg/ha
6.0: GLXMA [1]; 0.1250 kg/ha | GLXMA [1]; 0.2500 kg/ha | ECHCG; 0.2500 kg/ha | TRZAWR; 0.5000 kg/ha
5.0 and 4.0: GLXMA [1]; 0.0313-0.0320 kg/ha
5.5 and 3.0: GLXMAW [3]; 0.0157-0.0160 kg/ha
5.0: TRZAWR; 0.2500 kg/ha
7.5 and 7.0: IPOSS; 0.0157-0.0160 kg/ha
2.8 and 4.0: ORYSAT; 0.0156-0.0160 kg/ha
